Test results as given in the supplement of paper PMC11208160.

Assay: recombinant barcode read abundance after kanamycin selection (control-corrected) (log10(CPM+1)); higher = more efficient recombination; sequences stand for … in AGTGCAGAGAAAATCGGCCAGTTTTCTCTGCCTGCAGTCCGCATGCCGT…ATTTATGCAGCGGACTGCCTTTCTCCCAAAGTGATAAACCGGACAGTATCATGGACCGGTTTTCCCGGTAATCCGTATTTGCAAGGTTGGTTTCACT; site = the 11-nt target
Experimental: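 Same pooled E. coli target screen (IS621 bridge recombinase, kanamycin selection, control-corrected CPM, mean of 2 biological replicates). Here the two core-binding nucleotides of the LTG and RTG of the bridge RNA target-binding loop are mutated. Target and donor CT cores are held constant, and the other 9 guide positions match the target. The target is read from the library oligo sequence. Molecule = full bridge RNA written as DNA: nt 1-80 from the library oligo, rest WT scaffold.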

Sequence	recombinant barcode read abundance (log10)
AAACAGTCCTGGGTTCTAACCTGTTGCCTGG [AAACAGTCTAG_LTGcore_CC_RTGcore_CC] (site AAACAGTCTAG) (LTG core: CC, RTG core: CC)	0.0864
AAACAGTCTTGGGTTCTAACCTGTTGCCTAC [AAACAGTCTAG_LTGcore_CT_RTGcore_GT] (site AAACAGTCTAG) (LTG core: CT, RTG core: GT)	0.553
AAACAGTCTTGGGTTCTAACCTGTTGCCTCG [AAACAGTCTAG_LTGcore_CT_RTGcore_CG] (site AAACAGTCTAG) (LTG core: CT, RTG core: CG)	1.3
AAACAGTCTTGGGTTCTAACCTGTTGCCTGT [AAACAGTCTAG_LTGcore_CT_RTGcore_AC] (site AAACAGTCTAG) (LTG core: CT, RTG core: AC)	1.66
AAACAGTCTTGGGTTCTAACCTGTTGCCTTT [AAACAGTCTAG_LTGcore_CT_RTGcore_AA] (site AAACAGTCTAG) (LTG core: CT, RTG core: AA)	1.32
AAACAGTGCTGGGTTCTAACCTGTTGCCTGC [AAACAGTCTAG_LTGcore_GC_RTGcore_GC] (site AAACAGTCTAG) (LTG core: GC, RTG core: GC)	0.0997
AAACAGTGGTGGGTTCTAACCTGTTGCCTCC [AAACAGTCTAG_LTGcore_GG_RTGcore_GG] (site AAACAGTCTAG) (LTG core: GG, RTG core: GG)	0.0531
AAACAGTGTTGGGTTCTAACCTGTTGCCTAC [AAACAGTCTAG_LTGcore_GT_RTGcore_GT] (site AAACAGTCTAG) (LTG core: GT, RTG core: GT)	0.0266
AAACAGTGTTGGGTTCTAACCTGTTGCCTAG [AAACAGTCTAG_LTGcore_GT_RTGcore_CT] (site AAACAGTCTAG) (LTG core: GT, RTG core: CT)	0.0452
AAACAGTTGTGGGTTCTAACCTGTTGCCTAG [AAACAGTCTAG_LTGcore_TG_RTGcore_CT] (site AAACAGTCTAG) (LTG core: TG, RTG core: CT)	0.029
AAACAGTTTTGGGTTCTAACCTGTTGCCTAA [AAACAGTCTAG_LTGcore_TT_RTGcore_TT] (site AAACAGTCTAG) (LTG core: TT, RTG core: TT)	0.182
AAACATGAGTGGGTTCTAACCTGTTGCCTAG [AAACATGCTAG_LTGcore_AG_RTGcore_CT] (site AAACATGCTAG) (LTG core: AG, RTG core: CT)	0.109
AAACATGAGTGGGTTCTAACCTGTTGCCTCT [AAACATGCTAG_LTGcore_AG_RTGcore_AG] (site AAACATGCTAG) (LTG core: AG, RTG core: AG)	0.191
AAACATGCGTGGGTTCTAACCTGTTGCCTCG [AAACATGCTAG_LTGcore_CG_RTGcore_CG] (site AAACATGCTAG) (LTG core: CG, RTG core: CG)	0.135
AAACATGCTTGGGTTCTAACCTGTTGCCTAT [AAACATGCTAG_LTGcore_CT_RTGcore_AT] (site AAACATGCTAG) (LTG core: CT, RTG core: AT)	0.681
AAACATGCTTGGGTTCTAACCTGTTGCCTCA [AAACATGCTAG_LTGcore_CT_RTGcore_TG] (site AAACATGCTAG) (LTG core: CT, RTG core: TG)	0.288
AAACATGCTTGGGTTCTAACCTGTTGCCTCG [AAACATGCTAG_LTGcore_CT_RTGcore_CG] (site AAACATGCTAG) (LTG core: CT, RTG core: CG)	1.02
AAACATGCTTGGGTTCTAACCTGTTGCCTCT [AAACATGCTAG_LTGcore_CT_RTGcore_AG] (site AAACATGCTAG) (LTG core: CT, RTG core: AG)	0.435
AAACATGCTTGGGTTCTAACCTGTTGCCTGT [AAACATGCTAG_LTGcore_CT_RTGcore_AC] (site AAACATGCTAG) (LTG core: CT, RTG core: AC)	1.55
AAACATGCTTGGGTTCTAACCTGTTGCCTTC [AAACATGCTAG_LTGcore_CT_RTGcore_GA] (site AAACATGCTAG) (LTG core: CT, RTG core: GA)	0.572
AAACATGCTTGGGTTCTAACCTGTTGCCTTG [AAACATGCTAG_LTGcore_CT_RTGcore_CA] (site AAACATGCTAG) (LTG core: CT, RTG core: CA)	1.17
AAACATGGATGGGTTCTAACCTGTTGCCTTC [AAACATGCTAG_LTGcore_GA_RTGcore_GA] (site AAACATGCTAG) (LTG core: GA, RTG core: GA)	0.0557

Sequence	recombinant barcode read abundance (log10)
AAACATGGTTGGGTTCTAACCTGTTGCCTAG [AAACATGCTAG_LTGcore_GT_RTGcore_CT] (site AAACATGCTAG) (LTG core: GT, RTG core: CT)	0.108
AAACATGTTTGGGTTCTAACCTGTTGCCTAG [AAACATGCTAG_LTGcore_TT_RTGcore_CT] (site AAACATGCTAG) (LTG core: TT, RTG core: CT)	0.0409
ACGGGACAATGGGTTCTAACCTGTTGCAGAG [ACGGGACCTCT_LTGcore_AA_RTGcore_CT] (site ACGGGACCTCT) (LTG core: AA, RTG core: CT)	0.0324
ACGGGACAATGGGTTCTAACCTGTTGCAGTT [ACGGGACCTCT_LTGcore_AA_RTGcore_AA] (site ACGGGACCTCT) (LTG core: AA, RTG core: AA)	0.298
ACGGGACAGTGGGTTCTAACCTGTTGCAGCT [ACGGGACCTCT_LTGcore_AG_RTGcore_AG] (site ACGGGACCTCT) (LTG core: AG, RTG core: AG)	0.237
ACGGGACCCTGGGTTCTAACCTGTTGCAGGG [ACGGGACCTCT_LTGcore_CC_RTGcore_CC] (site ACGGGACCTCT) (LTG core: CC, RTG core: CC)	1.21
ACGGGACCTTGGGTTCTAACCTGTTGCAGAC [ACGGGACCTCT_LTGcore_CT_RTGcore_GT] (site ACGGGACCTCT) (LTG core: CT, RTG core: GT)	0.9
ACGGGACCTTGGGTTCTAACCTGTTGCAGAT [ACGGGACCTCT_LTGcore_CT_RTGcore_AT] (site ACGGGACCTCT) (LTG core: CT, RTG core: AT)	1.4
ACGGGACCTTGGGTTCTAACCTGTTGCAGGA [ACGGGACCTCT_LTGcore_CT_RTGcore_TC] (site ACGGGACCTCT) (LTG core: CT, RTG core: TC)	0.528
ACGGGACGATGGGTTCTAACCTGTTGCAGAG [ACGGGACCTCT_LTGcore_GA_RTGcore_CT] (site ACGGGACCTCT) (LTG core: GA, RTG core: CT)	0.81
ACGGGACGCTGGGTTCTAACCTGTTGCAGAG [ACGGGACCTCT_LTGcore_GC_RTGcore_CT] (site ACGGGACCTCT) (LTG core: GC, RTG core: CT)	0.257
ACGGGACGGTGGGTTCTAACCTGTTGCAGAG [ACGGGACCTCT_LTGcore_GG_RTGcore_CT] (site ACGGGACCTCT) (LTG core: GG, RTG core: CT)	0.14
ACGGGACTGTGGGTTCTAACCTGTTGCAGAG [ACGGGACCTCT_LTGcore_TG_RTGcore_CT] (site ACGGGACCTCT) (LTG core: TG, RTG core: CT)	0.397
ACGGGACTGTGGGTTCTAACCTGTTGCAGCA [ACGGGACCTCT_LTGcore_TG_RTGcore_TG] (site ACGGGACCTCT) (LTG core: TG, RTG core: TG)	0.179
ACGGGACTTTGGGTTCTAACCTGTTGCAGAA [ACGGGACCTCT_LTGcore_TT_RTGcore_TT] (site ACGGGACCTCT) (LTG core: TT, RTG core: TT)	0.0398
ACGGGACTTTGGGTTCTAACCTGTTGCAGAG [ACGGGACCTCT_LTGcore_TT_RTGcore_CT] (site ACGGGACCTCT) (LTG core: TT, RTG core: CT)	0.0241
AGGAGGTAATGGGTTCTAACCTGTTGCCTAG [AGGAGGTCTAG_LTGcore_AA_RTGcore_CT] (site AGGAGGTCTAG) (LTG core: AA, RTG core: CT)	0.278
AGGAGGTAGTGGGTTCTAACCTGTTGCCTAG [AGGAGGTCTAG_LTGcore_AG_RTGcore_CT] (site AGGAGGTCTAG) (LTG core: AG, RTG core: CT)	0.122
AGGAGGTCTTGGGTTCTAACCTGTTGCCTGC [AGGAGGTCTAG_LTGcore_CT_RTGcore_GC] (site AGGAGGTCTAG) (LTG core: CT, RTG core: GC)	0.814
AGGAGGTCTTGGGTTCTAACCTGTTGCCTGG [AGGAGGTCTAG_LTGcore_CT_RTGcore_CC] (site AGGAGGTCTAG) (LTG core: CT, RTG core: CC)	0.551
AGGAGGTGATGGGTTCTAACCTGTTGCCTAG [AGGAGGTCTAG_LTGcore_GA_RTGcore_CT] (site AGGAGGTCTAG) (LTG core: GA, RTG core: CT)	0.417
AGGAGGTTATGGGTTCTAACCTGTTGCCTAG [AGGAGGTCTAG_LTGcore_TA_RTGcore_CT] (site AGGAGGTCTAG) (LTG core: TA, RTG core: CT)	0.0987
